# Columns and labels:
# TLR8 = conditions: cited from earlier work
# [1] = tested on: mixed human atheroma cell culture; experiment: IFNα production (ELISA) in mixed cell type atheroma cell culture; format: cell-based; conditions: 1 μM, 24 hours
# Description: Carotid endarterectomies from patients undergoing surgery for carotid disease were obtained at Charing Cross Hospital, London. The protocol was approved by the Research Ethics Committee RREC2989. All patients gave written informed consent, according to the Human Tissue Act 2004 (UK). Single cell suspensions of mixed cell types were obtained via enzymatic digestion and cultured for 24 hours as previously described (18).
# SMC were cultured in 50 cm^2 tissue culture dishes and grown until near confluence. AthSMC and AoSMC were serum starved for 24 hours and then cultured in DMEM either alone or in the presence of 10 ng/ml IL1a, 100 ng/ml Pam3Cys, 100 ng/ml FSL-1 (Pam2CGDPKHPKSF), 25 μg/ml Poly(I:C), 100 ng/ml Lipopolysaccharide (LPS), 1 μg/ml R837 (Imiquimod) and 1 μg/ml PolyU (all purchased from Invivogen). […] The concentrations used were selected on the basis of dose-response experiments as the dose with maximal effect in absence of cell death monitored via MTT.
# (§1) Cytokine production in supernatants of AthSMC and AoSMC were measured by ELISA using IL-6, IL-8 and CCL2/MCP-1 (Pharmingen, UK). IFNα was detected via a high sensitivity ELISA kit from R&D Systems. Each condition was tested in triplicate and each triplicate was analyzed separately. Concomitantly, viability was monitored with the use of 3-(4,5-dimethyl[…])-2,5-diphenyltetrazolium (MTT) (Sigma, UK).
# [2] = tested on: human atheroma-derived smooth muscle cells (AthSMC); experiment: Cytokine production (ELISA) by SMC stimulated with TLR agonists for 24 hours, AthSMC compared to AoSMC; format: cell-based; conditions: 24 hours stimulation
# Description: AthSMC were isolated from the mixed atheroma cells via magnetic cell sorting (Miltenyi, MACS), utilizing anti-CD45 (pan-leukocyte marker) and anti-CD31 (endothelial cells) antibodies coupled to microbeads. SMC expressing SMC-alpha actin composed >90% of the cells. Control AoSMC were purchased from Promocell (Germany). Both SMC types were grown in SMC medium (Promocell, Germany) and used at passage 3 consistently in all experiments. The protocols of stimulation with TLR ligands are described below.
# SMC were cultured in 50 cm^2 tissue culture dishes and grown until near confluence. AthSMC and AoSMC were serum starved for 24 hours and then cultured in DMEM either alone or in the presence of 10 ng/ml IL1a, 100 ng/ml Pam3Cys, 100 ng/ml FSL-1 (Pam2CGDPKHPKSF), 25 μg/ml Poly(I:C), 100 ng/ml Lipopolysaccharide (LPS), 1 μg/ml R837 (Imiquimod) and 1 μg/ml PolyU (all purchased from Invivogen). Cells were serum starved for 24 h prior to stimulation with the indicated agonists. Supernatants were collected 24 hours after stimulation and frozen at −80° C. for batch analysis via ELISA. In the experiments performed on the mixed human atheroma cell culture, cells were cultured immediately after isolation at 10^6 cells per milliliter in RPMI containing 5% fetal bovine serum (Biosera, UK) in the presence or absence of 25 μg/ml Poly(I:C), 1 μM CpG ODN2006 and 1 μM CpG ODN2006 control (Invivogen) for 24 and 48 hours. The concentrations used were selected on the basis of dose-response experiments as the dose with maximal effect in absence of cell death monitored via MTT.
# as §1
# AthSMC and AoSMC [3] = experiment: TLR3 gene expression by Q-PCR in stimulated SMC; format: cell-based, human; conditions: 5 hours
# Description: Alternatively, AoSMc and AthSMC were stimulated with 25 μg/ml Poly(I:C) or interferon α (IFN α) at 10 ng/mL or IFNy at 10 ng/mL. Total RNA was extracted as before and TLR3 gene expression was quantified via Q-PCR with TaqMan® Gene Expression Assays (Hs01551078_m1*; Applied Biosystems Inc.).
# AthSMC and AoSMC [4] = experiment: Atherosclerosis RT2 Profiler PCR Array gene expression in SMC stimulated with Poly(I:C) for 5 hours; format: cell-based, human; conditions: 25 μg/ml
# Description: SMCs were plated in 9.6 cm^2 dishes and grown until near confluence. SMCs were serum starved for 24 h prior to stimulation with 25 μg/ml Poly(I:C) for 5 hours. Total cellular RNA was extracted from SMC using RNeasy® Mini Kit (Qiagen) according to the manufacturer's instructions. To remove any residual genomic DNA, RNA samples were treated with DNase (TurboDNase, Ambion) according to manufacturer's instructions. RNA was reverse transcribed to cDNA using M-MLV Reverse Transcriptase (Promega, UK). Quantitative PCR (QPCR) analysis of 84 atherosclerosis related genes was performed using Atherosclerosis RT2 Profiler PCR Arrays (SA Bioscience Corporation, USA) as per the manufacturer's protocol. The complete list of the genes analyzed is available online at http://www.sabiosciences.com/rt_per_product/HTML/PAHS-038A.html. RT2 Profiler PCR arrays were run on an ABI 7900HT machine (Applied Biosystems). Duplicate arrays were run per condition for unstimulated and Poly (I:C)-stimulated AoSMC and AthSMC. Data analysis was performed using the manufacturer's integrated web-based software package for the PCR Array System using Ct based fold-change calculations.
# [5] = tested on: C57BL/6, ApoE−/− and TLR3−/− mice; experiment: Vascular gene expression (quantitative RT-PCR) 24 hours after a single i.p. dose of Poly(I:C); format: in vivo
# Description: FIG. 2 Aortic gene expression of both pro- and anti-inflammatory factors is induced by Poly(I:C) stimulation. 10- and 30-week old C57BL/6, ApoE−/− and TLR3−/− mice were stimulated with PBS or 250 μg Poly(I:C) in PBS. 24 hours post-stimulation, mice were sacrificed, aortas harvested and RNA extracted. Gene expression of CCL5 (A), IL-10 (B), VCAM-1 (C) and IFNβ (D) was examined by quantitative RT-PCR. Bars show overall mean±SEM (n=3-5 mice per group; *p<0.05, **p<0.01, ***p<0.001 PBS v. Poly(I:C); unpaired student's t-test).
# (§2) Total RNA was isolated from murine tissues using the Qiagen RNeasy kit (Qiagen, Crawley, UK) according to the manufacturer's instructions. Total RNA was treated with DNase I and reverse-transcribed to cDNA using M-MLV Reverse Transcriptase RNase H-, Point Mutant (Promega, UK) and oligo(dT) primer. RT-PCR was performed using TaqMan Gene Expression Assays (CCL5 (Mm01302427_m1), VCAM1 (Mm01320970_m1), CCL2 (Mm00441242_m1), TLR3 (Mm01207403_m1), IL-10 (Mm01288386_m1), PD-L1 (Mm00452054_m1*), PD-L2 (Mm00451734_m1*) IFNβ (Mm00439552_s1*), (Applied Biosystems) and TaqMan universal PCR Master Mix (Applied Biosystems) on a 7900HT Fast Real-Time PCR System (Applied BioSystems). PCR amplification was carried out for 40 cycles. Samples were normalized to β-actin. The 2-ΔΔCt method was used to analyze the relative changes in gene expression.
# C57BL/6 mice = experiment: Gene expression in aortas and lymphoid tissues after chronic Poly(I:C) stimulation for 3 weeks; format: in vivo; conditions: chronic stimulation 3 weeks
# Description: FIG. 10 Gene expression of anti-inflammatory factors is increased in aortas and lymphoid tissues in C57BL/6 mice treated with Poly(I:C) Aortas, spleens and para-aortic lymph nodes (PALN) of C57BL/6 mice that underwent carotid artery injury and PBS or Poly(I:C) treatment were collected at sacrifice. RNA was extracted and gene expression of CCL5, IFNβ, PD-L1, PD-L2, and IL-10 in the aorta (A), spleen (B) and PALN(C) was examined by RT-PCR. Bars show overall mean±SEM (n=4 mice per group, *p<0.05, **p<0.01 PBS v. Poly(I:C); unpaired student's t-test). Abbreviations: IFNβ: Interferon beta, IL-10: Interleukin-10, PD-L1: programmed death-ligand 1, PD-L2: programmed death-ligand 2.
# (§3) At 22 weeks of age, male C57BL/6 and TLR3^−/− mice were anesthetized with isofluorane by inhalation, the left carotid artery dissected and a non-occlusive tygon collar (length 2.5 mm; internal bore diameter, 510 μm, Cole-Parmer, London, UK) placed around the carotid artery. Mice received 250 μg Poly(I:C) (Sigma, Dorset, UK) or PBS intraperitoneally on alternate days for a total of 8 doses starting 4 days after surgery. Twenty-one days following collar placement, mice were euthanized, and neointima development and the presence of elastic lamina breaks were assessed as described below.
# as §2
# C57BL/6 and TLR3−/− mice = experiment: Perivascular collar injury: neointima formation (intima/media ratio); format: in vivo
# Description: as §3
# […] following collar placement, mice were euthanized, terminal blood collected via cardiac puncture and the vasculature perfused with 0.9% saline. Injured carotids were dissected out and frozen at −80° C. in Optimal cutting temperature (OCT) compound (ThermoScientific, Runcorn, UK). Sham-operated contralateral arteries were used as controls. Mice were fed regular chow throughout the duration of the experiment.
# For the injured carotid artery, serial 5 μm cryosections were taken of the carotid tissue distal to the collar. Five sections were collected on each slide and 15 to 25 slides were collected per arterial segment. The first five alternate slides were stained with Accustain elastic stain kit (Sigma) according to manufacturer's instructions. Measurement of lesion and vessel areas was performed on one section per stained slide using ProgRes CapturePro image analysis software (version 2.5.2.0, Jenoptik, Germany). The area between the internal and external elastic […] was taken as the medial area and the intimal area was calculated by subtracting the lumen area from the internal elastic lamina area. The intimal medial ratio (IMR) was then calculated by dividing the intimal area by the medial area. The IMR measurements were then averaged for each mouse.
# TLR3−/− mice = experiment: Perivascular collar injury: elastic lamina breaks; format: in vivo; conditions: systemic administration 250 μg i.p.
# Description: as §3
# Elastin-stained slides were also used to assess the integrity of the elastic laminae. The portion of the carotid artery distal to the collar (the same as used for neointima assessment) was divided into 5 segments and representative sections from each segment were evaluated for the presence of interruptions in the elastic lamina. The width of any observed break was measured by drawing a line between the start and end of a break in the external elastic lamina using ProgRes CapturePro image analysis software (version 2.5.2.0, Jenoptik). The width of any elastic lamina break was calculated as the mean width of break across all sections examined for each mouse. […]
# [6] = Poly(I:C) 25 μg/ml, FSL-1 100 ng/ml
# [7] = single dose 250 μg i.p., 24 hours
compound,measurement,setting,value
CCCc1nc2c(N)nc3ccccc3c2s1 [CL075],Agonist strength for TLR8 relative to TLR7,TLR8,~10 ×
CCCCNc1nc(N)c2[nH]c(=O)n(Cc3ccc(C(=O)NCC(=O)O)cc3)c2n1 [CL264],TLR8 activation / stimulation,TLR8; CL264: even at high concentrations (>10 mg/ml),does not stimulate TLR8
CpG ODN2006,IFNα production,[1],Type I interferons are produced in the mixed cell culture population in response to TLR9 stimulation
FSL-1,"IL-6 expression, AthSMC compared to AoSMC",[2]; [6],enhanced response
same,"IL-8 expression, AthSMC compared to AoSMC",[2]; [6],enhanced response
IFNα,TLR3 gene expression,"AthSMC and AoSMC [3]; AoSMC and AthSMC, IFN 10 ng/mL",able to increase the expression of TLR3
Polyriboinosinic-polycytidylic acid [Poly(I:C)],"TLR3 dependent response in AthSMC compared to AoSMC (fold change in IL-6 production, FIG. 1B)",[2]; 25 μg/ml,over 40 fold
same,"CCL2/MCP-1 expression, AthSMC compared to AoSMC",[2]; [6],enhanced expression
same,"IL-6 expression, AthSMC compared to AoSMC",[2]; [6],enhanced expression
same,"IL-8 expression, AthSMC compared to AoSMC",[2]; [6],enhanced expression
same,"Expression of selected genes of inflammatory cell recruitment (e.g. VCAM1, CCL5) and regulation of inflammation (e.g. A20, BIRC3/cIAP)",AthSMC and AoSMC [4],significantly increased the expression
same,TLR3 gene expression,"AthSMC and AoSMC [3]; AoSMC, 25 μg/ml",not in AoSMC
same,TLR3 gene expression,"AthSMC and AoSMC [3]; AthSMC, 25 μg/ml",able to upregulate the expression of TLR3
same,Gene induction in aorta of ApoE−/− mice with advanced disease compared to young ApoE−/−,[5]; 30-week vs 10-week old ApoE−/− mice,more pronounced
same,Gene induction in carotid artery tissue compared to aorta,"[5]; CCL5, CCL2, VCAM1, single dose 250 μg",even more marked
same,Expression of the induced genes in TLR3−/− mice,"[5]; TLR3−/− mice, single dose 250 μg",almost abrogated
same,A20 induction,"[5]; mice, single dose 250 μg i.p.",A20 induction was not observed
same,Aortic expression of CCL2/MCP-1,[5]; [7],induced the aortic expression
same,Aortic expression of CCL5/RANTES,[5]; [7],induced the aortic expression
same,Aortic expression of IFNβ,[5]; [7],induced the aortic expression
same,Aortic expression of IL-10,[5]; [7],induced the aortic expression
same,Aortic expression of PD-L2,[5]; [7],induced the aortic expression
same,Aortic expression of VCAM-1,[5]; [7],induced the aortic expression
same,"TLR3 gene expression in vascular tissues (aorta, carotid arteries)","[5]; single dose 250 μg, 24 hours",up-regulated TLR3 gene expression
same,Expression of CCL5 in the aorta,C57BL/6 mice,significantly increased
same,Expression of IFNβ in the aorta,C57BL/6 mice,significantly increased
same,Expression of IFNβ mRNA in the spleen,C57BL/6 mice,induced
same,Expression of IL10 in the aorta,C57BL/6 mice,significantly increased
same,Gene expression of PD-L1 in the para-aortic lymph nodes,C57BL/6 mice,induced
same,Gene expression of PD-L2 in the para-aortic lymph nodes,C57BL/6 mice,induced
same,"Neointima formation, intima/media ratio, compared to vehicle","C57BL/6 and TLR3−/− mice; C57BL/6 mice, 250 μg i.p., 21 days after injury, p<0.001",significantly reduced
same,Protection against neointima formation,"C57BL/6 and TLR3−/− mice; TLR3−/− mice, 250 μg i.p., p>0.05",ablated
same,End-weight of mice,"C57BL/6 and TLR3−/− mice; all groups, Poly(I:C) or vehicle",No difference
same,"Elastic lamina breaks (frequency, depth and width)",TLR3−/− mice,"reduced the frequency, depth and width of the elastic lamina breaks"
